Format in all cases: cell-based, human
One experiment relates to IL-6. The experiment in a line: PHA-induced IL-6 release from PBMCs (ELISA). The settings on record: PHA + 0.1uM DEX; PHA alone 703.0, without PHA 157. As to the method: (§1) The peripheral blood mononuclear cells (PBMCs) from the blood of healthy adult donors were diluted and isolated by Ficoll-Paque (FP) gradient centrifugation (Amersham Biosciences) at 600 g for 30 min at room temperature. The isolated PBMCs were washed by phosphate buffered saline, re-suspended in 10% heat inactivated fetal bovine serum (FBS), and seeded in 96-well culture plate with a density of […] cells per well for assessing the anti-arthritis activity of the extracts as described herein.
(§2) PHA-induced PBMC proliferation was used as a technical platform for the assessment of anti-inflammation efficacy of various extracts of the present invention. Human PBMCs were co-cultured with PHA at a final concentration of 5 μg/mL and various extracts of Plectranthus amboinicus at a final concentration of 0˜90 μg/mL for 3 days. […] The absorbance of each well was detected by a photoelectric colorimeter at the wavelength of 540 nm. […] Three independent experiments were performed, and the data determined by MTT assays were further expressed as IC50.
(§3) On Day 3, cell supernatant was collected, divided, and stored at −20° C. until analysis. The amounts of TNF-α, interleukin IL-6, IFN-γ, and IL-5 in the supernatant were measured using Quantikine ELISA kits (R & D Systems, Minneapolis, Minn.) following the manufacturer's instruction.

The test system of the next experiment is IFN-γ. The experiment in a line: PHA-induced IFN-γ release from PBMCs (ELISA). The settings on record: PHA + 0.1uM DEX; PHA alone 176.8, without PHA 25.0. The protocol: as §1, §2, §3
Another experiment deals with IL-5. In words: PHA-induced IL-5 release from PBMCs (ELISA). Conditions: PHA + 0.1uM DEX; PHA alone 161.9, without PHA 37.0. As to the method: as §1, §2, §3
For another experiment, the system named is TNF-α. In words: PHA-induced TNF-α release from PBMCs (ELISA). The settings on record: PHA + 0.1uM DEX; PHA alone 4031.3, without PHA 271.6. As to the method:
as §1, §2, §3

The test system of experiment [1] is PHA-induced PBMC proliferation. In words: Inhibition of PHA-induced PBMC proliferation (MTT assay). Conditions: positive control 0.1 uM; PHA 5 μg/mL, 3 days; PHA alone 0.634, without PHA 0.245. As to the method: as §1
as §2, with “days. PBMCs treated by dexamethasone (DEX) before stimulation by PHA (5 μg/mL) were also included in the experiment as positive control samples. After cells were incubated for 3 days at 37° C. with humid air containing 5% CO2, MTT (methyl thiazolyl tetrazolium, MTT) assays were carried out to evaluate the proliferation rate of PBMCs.” for “days.”

In the case of `C[C@@H]1C[C@H]2[C@@H]3CCC4=CC(=O)C=C[C@]4(C)[C@@]3(F)[C@@H](O)C[C@]2(C)[C@@]1(O)C(=O)CO` [DEX, dexamethasone], the “Concentration of IL-6 released from PBMCs” value in the experiment with IL-6 is recorded as 157 pg/mL. Moreover, the “Concentration of IFN-γ released from PBMCs” value in the experiment on IFN-γ is given as 25 pg/mL. Moreover, the “Concentration of IL-5 released from PBMCs” value with IL-5 worked out at 37 pg/mL. Moreover, the “Concentration of TNF-α released from PBMCs” value in the experiment on TNF-α is on record as 272.5 pg/mL. Moreover, the “PHA-induced PBMC proliferation, MTT assay data (absorbance 540 nm)” value in experiment [1] is 0.242.

Values taken from patent US11517604B2, “Method for preparing Plectranthus amboinicus fraction having anti-arthritis activity” (ONENESS BIOTECH CO., priority 2011, dated 2022).
